For this assay, the system named is OCI-LY3 cells. Put plainly: Resazurin cell viability (proliferation) assay in OCI-LY3 DLBCL cells. It counts as cell-based. Conditions: Homo sapiens, OCI-LY3 cells (BTK independent), 72 h, 50% growth inhibition vs vehicle, read-out: OCI-LY3 Prol GI50. Put shortly: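 Cells were seeded at 1×10^4 per well and dosed 3 h later: 8-point 1:4 dilutions from 10 μM (OCI-LY3), in triplicate, 72 h at 37 °C. Resazurin (13 μg/ml final) was added for the last 2 h and fluorescence read at 530/600 nm. GI50 is relative to DMSO vehicle, typically from ≥2 independent experiments.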
(Alamar Blue is a resazurin reagent that responds to reducing activity.)

The values below come from patent US12441733B2, “Substituted 2,4-dioxotetrahydropyrimidines as intermediates in the synthesis of bruton's tyrosine kinase inhibitors” (Novartis AG, priority 2018, dated 2025).

A value given as a limit tells only on which side of the number the result lay.

Take `Cc1ccc(C(=O)N2CCC3(CCN(CCc4ccc(-c5cc6c(-c7cc(F)cc(NC(=O)c8ccc(C(C)(C)O)cc8F)c7C)ncnc6[nH]5)cc4)CC3)CC2)cc1N1CCC(=O)NC1=O` [Compound 5, N-(3-(6-(4-(2-(9-(3-(2,4-Dioxotetrahydropyrimidin-1(2H)-yl)-4-methylbenzoyl)-3,9-diazaspiro[5.5]undecan-3-yl)ethyl)phenyl)-7H-pyrrolo[2,3-d]pyrimidin-4-yl)-5-fluoro-2-methylphenyl)-2-fluoro-4-(2-hydroxypropan-2-yl)benzamide]: the GI50 – broadly, the concentration that inhibits growth by half – turned out to be 6.55 µM.

For the molecule `COc1ccc(C(=O)N2CCN(CCCCNCc3ccc(-c4cc5c(-c6cc(F)cc(NC(=O)c7ccc(C(C)(C)O)cc7F)c6C)ncnc5[nH]4)cc3)CC2)cc1N1CCC(=O)NC1=O` [Compound 40, N-(3-(6-(4-(((4-(4-(3-(2,4-dioxotetrahydropyrimidin-1(2H)-yl)-4-methoxybenzoyl)piperazin-1-yl)butyl)amino)methyl)phenyl)-7H-pyrrolo[2,3-d]pyrimidin-4-yl)-5-fluoro-2-methylphenyl)-2-fluoro-4-(2-hydroxypropan-2-yl)benzamide], the GI50 was over 10 µM.
